Assay results from patent US9212173B2, “Pyrazole aminopyrimidine derivatives as LRRK2 modulators” (Genentech, Inc., priority 2012, dated 2015).

Molecular target: LRRK2 (Homo sapiens (Human), UniProt Q5S007, G2019S)
Experiment: In Vitro LRRK2 Assay (LRRK2 Ki)
Type: biochemical
Method: In Vitro LRRK2 Lanthascreen Binding Assay
This assay was used to determine a compound's potency in inhibiting activity of LRRK2 by determining, Kiapp, IC50, or percent inhibition values.
Binding of the Alexa Fluor® “tracer” to a kinase is detected by addition of a Eu-labeled anti-GST antibody.
12 pt curve. […] Stamp 5 ul to assay plate. Final top test concentration 100 uM
In Reaction Buffer, 5 ul of DMSO (3%) was added to total and blank wells and 5 ul of Eu-labeled anti-GST antibody (6 nM) was added to blank wells. Add 5 ul LRRK2 (30 nM)/Eu-labeled anti-GST antibody (6 nM) mix to compound and total wells.
Incubate plates at room temperature for 1 hour on a plate shaker (gentle shaking). Read on Perkin Elmer EnVision reader HTRF protocol
Subtract mean background values from all data points. Calculate % of control for each test value. Plot % of control vs Compound concentration. Calculate Ki Value (xlfit curve fitting-Morrison equation). Results expressed as a Ki in μM. Equation for Ki: Y=V0*(1−((x+Ki*(1+S/Km)+Et)/(2*Et)−(((x+Ki*(1+S/Km)+Et)^2−(4*Et*x))^0.5)/(2*Et)))
This assay was used to determine a compound's potency in inhibiting activity of LRRK2 by determining, Kiapp, IC50, or percent inhibition values. In a polypropylene plate, LRRK2, fluorescently-labeled peptide substrate, ATP and test compound were incubated together. Using a LabChip 3000 (Caliper Life Sciences), after the reaction the substrate was separated by capillary electrophoresis into two populations: phosphorylated and unphosphorylated. The relative amounts of each were quantitated by fluorescence intensity. LRRK2 Ki was determined according to the equation: Y=V0*(1−((x+Ki*(1+S/Km)+Et)/(2*Et)−(((x+Ki*(1+S/Km)+Et)^2−(4*Et*x))^0.5)/(2*Et))).
Ki values in Table 4 and elsewhere herein are shown in μM.
For serial dilutions, 34.6 μl DMSO was added to columns 3-24.
In Complete Reaction Buffer, substrate was diluted to 4 μM. Equal volumes of Complete Reaction Buffer and 4 μM substrate were combined to obtain the blank. Equal volumes of Complete Reaction Buffer and 4 μM substrate were combined and to the combined solution was added 2× final LRRK2 concentration.
To a 50 μl polypropylene plate, 5 μl/well buffer/substrate was added by hand to Blank wells. A Biomek FX was used to start the kinase reaction (“PLK SAR 23 ATP”). The following were added to the appropriate wells:
The plate was incubated for 2 hours in the dark. Biomek FX was used to stop the kinase reaction (“PLK Stop”), and 10 μl/well Stop solution was added to the Assay Plate. Results were read on the LabChip 3000.
The LabChip 3000 was run using the job “LRRK2 IC50” with the following job settings: […]

Chain of LRRK2 (Q5S007 whole entry G2019S): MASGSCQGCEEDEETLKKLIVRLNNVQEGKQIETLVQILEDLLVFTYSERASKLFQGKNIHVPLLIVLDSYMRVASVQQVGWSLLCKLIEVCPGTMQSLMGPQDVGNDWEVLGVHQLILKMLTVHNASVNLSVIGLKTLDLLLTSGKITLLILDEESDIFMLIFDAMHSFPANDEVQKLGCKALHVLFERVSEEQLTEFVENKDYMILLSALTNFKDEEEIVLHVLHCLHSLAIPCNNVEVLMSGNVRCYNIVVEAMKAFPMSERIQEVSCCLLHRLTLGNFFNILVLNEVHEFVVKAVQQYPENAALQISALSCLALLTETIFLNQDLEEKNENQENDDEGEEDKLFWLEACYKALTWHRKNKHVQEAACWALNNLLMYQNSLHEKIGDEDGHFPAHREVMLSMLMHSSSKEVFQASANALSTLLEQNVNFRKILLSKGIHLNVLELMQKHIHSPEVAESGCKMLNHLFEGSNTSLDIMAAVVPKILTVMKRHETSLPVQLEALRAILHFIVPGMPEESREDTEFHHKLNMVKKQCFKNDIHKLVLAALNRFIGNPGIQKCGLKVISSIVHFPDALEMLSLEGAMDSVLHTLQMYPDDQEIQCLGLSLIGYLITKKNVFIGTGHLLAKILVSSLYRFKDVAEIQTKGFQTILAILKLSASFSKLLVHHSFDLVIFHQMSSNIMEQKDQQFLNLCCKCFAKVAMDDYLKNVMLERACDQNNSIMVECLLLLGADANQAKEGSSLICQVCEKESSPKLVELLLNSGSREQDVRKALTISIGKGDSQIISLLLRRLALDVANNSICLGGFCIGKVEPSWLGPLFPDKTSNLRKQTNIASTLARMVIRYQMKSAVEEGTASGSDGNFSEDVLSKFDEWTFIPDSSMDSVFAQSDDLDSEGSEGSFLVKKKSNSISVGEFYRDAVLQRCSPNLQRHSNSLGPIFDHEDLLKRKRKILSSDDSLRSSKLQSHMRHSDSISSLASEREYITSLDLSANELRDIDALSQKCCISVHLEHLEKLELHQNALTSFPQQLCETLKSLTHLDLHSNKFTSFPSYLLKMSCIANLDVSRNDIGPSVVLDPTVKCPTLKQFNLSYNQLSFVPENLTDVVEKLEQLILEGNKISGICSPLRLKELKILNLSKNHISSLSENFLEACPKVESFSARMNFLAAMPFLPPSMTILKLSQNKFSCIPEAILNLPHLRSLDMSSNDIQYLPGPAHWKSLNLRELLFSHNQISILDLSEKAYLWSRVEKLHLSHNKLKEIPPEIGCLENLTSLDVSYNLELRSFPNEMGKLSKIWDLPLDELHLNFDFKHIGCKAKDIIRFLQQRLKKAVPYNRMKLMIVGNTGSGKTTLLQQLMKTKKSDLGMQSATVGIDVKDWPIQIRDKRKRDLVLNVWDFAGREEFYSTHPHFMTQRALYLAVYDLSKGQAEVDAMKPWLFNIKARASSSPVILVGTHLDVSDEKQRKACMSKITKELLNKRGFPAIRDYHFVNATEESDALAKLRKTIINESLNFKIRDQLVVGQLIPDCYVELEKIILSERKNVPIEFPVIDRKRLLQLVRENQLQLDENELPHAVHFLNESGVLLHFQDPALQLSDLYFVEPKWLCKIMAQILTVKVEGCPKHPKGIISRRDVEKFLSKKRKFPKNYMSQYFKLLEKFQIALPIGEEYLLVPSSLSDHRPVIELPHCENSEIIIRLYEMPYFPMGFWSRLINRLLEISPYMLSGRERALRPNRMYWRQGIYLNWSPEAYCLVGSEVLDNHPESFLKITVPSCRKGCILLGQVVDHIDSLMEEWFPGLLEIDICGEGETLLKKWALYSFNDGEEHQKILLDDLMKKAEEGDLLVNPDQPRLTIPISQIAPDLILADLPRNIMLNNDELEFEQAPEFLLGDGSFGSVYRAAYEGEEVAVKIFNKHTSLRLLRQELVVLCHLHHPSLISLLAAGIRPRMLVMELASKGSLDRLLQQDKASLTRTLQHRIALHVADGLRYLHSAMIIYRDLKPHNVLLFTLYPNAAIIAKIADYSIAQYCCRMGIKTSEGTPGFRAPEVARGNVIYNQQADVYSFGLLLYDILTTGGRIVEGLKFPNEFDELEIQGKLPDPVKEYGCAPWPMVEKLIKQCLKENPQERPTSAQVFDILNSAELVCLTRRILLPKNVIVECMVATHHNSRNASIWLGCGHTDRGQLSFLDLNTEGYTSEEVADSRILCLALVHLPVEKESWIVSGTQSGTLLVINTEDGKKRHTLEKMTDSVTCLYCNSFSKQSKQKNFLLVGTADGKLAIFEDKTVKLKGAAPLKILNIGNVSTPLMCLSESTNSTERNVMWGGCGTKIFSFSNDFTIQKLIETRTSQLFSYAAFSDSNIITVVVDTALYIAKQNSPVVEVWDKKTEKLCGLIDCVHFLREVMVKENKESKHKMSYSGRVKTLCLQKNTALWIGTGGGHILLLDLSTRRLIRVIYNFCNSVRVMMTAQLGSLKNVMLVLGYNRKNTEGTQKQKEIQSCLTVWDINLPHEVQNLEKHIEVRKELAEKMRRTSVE

CNc1nc(Nc2cnn(CC(C)c3ccn(C)n3)c2C)ncc1C(F)(F)F (stereo not shown) [Example 24, N4-methyl-N2-(5-methyl-1-(2-(1-methyl-1H-pyrazol-3-yl)propyl)-1H-pyrazol-4-yl)-5-(trifluoromethyl)pyrimidine-2,4-diamine]
Ki: 16.6 nM

CCNc1nc(Nc2cn(C(C)(C)c3ncn(C)n3)nc2Cl)ncc1C(F)(F)F [Example 32, N2-(3-chloro-1-(2-(1-methyl-1H-1,2,4-triazol-3-yl)propan-2-yl)-1H-pyrazol-4-yl)-N4-ethyl-5-(trifluoromethyl)pyrimidine-2,4-diamine]
Ki: 0.5 nM

CNc1nc(Nc2cnn(CC3(O)CC3)c2Cl)ncc1C(F)(F)F [Example 10, 1-((5-chloro-4-((4-(methylamino)-5-(trifluoromethyl)pyrimidin-2-yl)amino)-1H-pyrazol-1-yl)methyl)cyclopropanol]
Ki: 5 nM

CNc1nc(Nc2cnn(C3CCOC[C@H]3F)c2C)ncc1C(F)(F)F (stereo in doubt) [Example 39, N2-(1-(3-fluorotetrahydro-2H-pyran-4-yl)-5-methyl-1H-pyrazol-4-yl)-N4-methyl-5-(trifluoromethyl)pyrimidine-2,4-diamine]
Ki: 2.8 nM

CCC(C#N)Cn1cc(Nc2ncc(C(F)(F)F)c(NC)n2)c(C)n1 (stereo not shown) [Example 42, 2-((3-methyl-4-((4-(methylamino)-5-(trifluoromethyl)pyrimidin-2-yl)amino)-1H-pyrazol-1-yl)methyl)butanenitrile]
Ki: 4.1 nM

Cc1c(Nc2ncc(C#N)c(NC3CC3)n2)cnn1C1CCOCC1 [Example 3, 4-(cyclopropylamino)-2-((5-methyl-1-(tetrahydro-2H-pyran-4-yl)-1H-pyrazol-4-yl)amino)pyrimidine-5-carbonitrile]
Ki: 7.3 nM

CNc1nc(Nc2cn(C(C)(C)CC#N)nc2C)ncc1C(F)(F)F [Example 41, 3-methyl-3-(3-methyl-4-((4-(methylamino)-5-(trifluoromethyl)pyrimidin-2-yl)amino)-1H-pyrazol-1-yl)butanenitrile]
Ki: 12.8 nM

CCNc1nc(Nc2cnn(C(C)(C)c3nncn3C)c2Cl)ncc1C(F)(F)F [Example 23, N2-(5-chloro-1-(2-(4-methyl-4H-1,2,4-triazol-3-yl)propan-2-yl)-1H-pyrazol-4-yl)-N4-ethyl-5-(trifluoromethyl)pyrimidine-2,4-diamine]
Ki: 1.1 nM

CCNc1nc(Nc2cc(C(C)(C)C#N)nn2C)ncc1C(F)(F)F [Example 44, 2-(5-((4-(ethylamino)-5-(trifluoromethyl)pyrimidin-2-yl)amino)-1-methyl-1H-pyrazol-3-yl)-2-methylpropanenitrile]
Ki: 0.7 nM

CCNc1nc(Nc2cn(C(C)(C)c3nncn3C)nc2Cl)ncc1C(F)(F)F [Example 31, N2-(3-chloro-1-(2-(4-methyl-4H-1,2,4-triazol-3-yl)propan-2-yl)-1H-pyrazol-4-yl)-N4-ethyl-5-(trifluoromethyl)pyrimidine-2,4-diamine]
Ki: 42.5 nM

CNc1nc(Nc2cc(C(C)(C)C#N)nn2C)ncc1C(F)(F)F [Example 45, 2-methyl-2-(1-methyl-5-((4-(methylamino)-5-(trifluoromethyl)pyrimidin-2-yl)amino)-1H-pyrazol-3-yl)propanenitrile]
Ki: 8.6 nM

CNc1nc(Nc2cn(C(C)(C)c3nc(C)cn3C)nc2C)ncc1C(F)(F)F [Example 16, N2-(1-(2-(1,4-dimethyl-1H-imidazol-2-yl)propan-2-yl)-3-methyl-1H-pyrazol-4-yl)-N4-methyl-5-(trifluoromethyl)pyrimidine-2,4-diamine]
Ki: 140 nM

CNc1nc(Nc2cn(C3(C)COC3)nc2C)ncc1C(F)(F)F [Example 15, N4-methyl-N2-(3-methyl-1-(3-methyloxetan-3-yl)-1H-pyrazol-4-yl)-5-(trifluoromethyl)pyrimidine-2,4-diamine]
Ki: 4.8 nM

CNc1nc(Nc2cnn(CC(C)c3ccn(C)n3)c2C)ncc1C(F)(F)F (stereo not shown) [Example 25, N4-methyl-N2-(5-methyl-1-(2-(1-methyl-1H-pyrazol-3-yl)propyl)-1H-pyrazol-4-yl)-5-(trifluoromethyl)pyrimidine-2,4-diamine]
Ki: 108 nM

CNc1nc(Nc2cn(C(C)(C)CO)nc2C)ncc1C(F)(F)F [Example 9, 2-methyl-2-(3-methyl-4-((4-(methylamino)-5-(trifluoromethyl)pyrimidin-2-yl)amino)-1H-pyrazol-1-yl)propan-1-ol]
Ki: 4.8 nM

CNc1nc(Nc2cn(C3CCOC[C@H]3F)nc2C)ncc1C(F)(F)F (stereo in doubt) [Example 37, N2-(1-(3-fluorotetrahydro-2H-pyran-4-yl)-3-methyl-1H-pyrazol-4-yl)-N4-methyl-5-(trifluoromethyl)pyrimidine-2,4-diamine]
Ki: 0.6 nM

CNc1nc(Nc2cn(C(C)(C)c3ncccn3)nc2C)ncc1C(F)(F)F [Example 26, N4-methyl-N2-(3-methyl-1-(2-(pyrimidin-2-yl)propan-2-yl)-1H-pyrazol-4-yl)-5-(trifluoromethyl)pyrimidine-2,4-diamine]
Ki: 4.3 nM

CCNc1nc(Nc2cn(C(C)(C)c3nnc(CC)o3)nc2C)ncc1C(F)(F)F [Example 29, N4-ethyl-N2-(1-(2-(5-ethyl-1,3,4-oxadiazol-2-yl)propan-2-yl)-3-methyl-1H-pyrazol-4-yl)-5-(trifluoromethyl)pyrimidine-2,4-diamine]
Ki: 6.5 nM

CNc1nc(Nc2cnn(C3CCOC[C@@H]3F)c2C)ncc1C(F)(F)F (stereo partly drawn) [Example 40, N2-(1-((3R)-3-fluorotetrahydro-2H-pyran-4-yl)-5-methyl-1H-pyrazol-4-yl)-N4-methyl-5-(trifluoromethyl)pyrimidine-2,4-diamine]
Ki: 0.6 nM

CNc1nc(Nc2cnn(S(=O)(=O)CCOC)c2C)ncc1C(F)(F)F [Example 22, N2-(1-((2-methoxyethyl)sulfonyl)-5-methyl-1H-pyrazol-4-yl)-N4-methyl-5-(trifluoromethyl)pyrimidine-2,4-diamine]
Ki: 6.46 nM

CNc1nc(Nc2cn(CCc3ccn(C)n3)nc2C)ncc1C(F)(F)F [Example 36, N4-methyl-N2-(3-methyl-1-(2-(1-methyl-1H-pyrazol-3-yl)ethyl)-1H-pyrazol-4-yl)-5-(trifluoromethyl)pyrimidine-2,4-diamine]
Ki: 3.7 nM

Cc1nn(C(C)(C)C#N)cc1Nc1ncc(C#N)c(NC2CC2)n1 [Example 46, 2-((1-(2-cyanopropan-2-yl)-3-methyl-1H-pyrazol-4-yl)amino)-4-(cyclopropylamino)pyrimidine-5-carbonitrile]
Ki: 3 nM

CCNc1nc(Nc2cn(C(C)(C)c3ncn(C(C)C)n3)nc2C)ncc1C(F)(F)F [Example 30, N4-ethyl-N2-(1-(2-(1-isopropyl-1H-1,2,4-triazol-3-yl)propan-2-yl)-3-methyl-1H-pyrazol-4-yl)-5-(trifluoromethyl)pyrimidine-2,4-diamine]
Ki: 0.6 nM

CNc1nc(Nc2cn(C(C)(C)c3ncc(C)o3)nc2C)ncc1C(F)(F)F [Example 18, N4-methyl-N2-(3-methyl-1-(2-(5-methyloxazol-2-yl)propan-2-yl)-1H-pyrazol-4-yl)-5-(trifluoromethyl)pyrimidine-2,4-diamine]
Ki: 3.82 nM

CNc1nc(Nc2cn(S(=O)(=O)CCOC)nc2C)ncc1C(F)(F)F [Example 21, N2-(1-((2-methoxyethyl)sulfonyl)-3-methyl-1H-pyrazol-4-yl)-N4-methyl-5-(trifluoromethyl)pyrimidine-2,4-diamine]
Ki: 1.85 nM
